What was measured:
[1] = system: BLM-induced mouse IPF model; assay: BLM-induced mouse IPF model (Example 2); type: in vivo; conditions: for up-regulation of TIMP-1 mRNA expression in the lung tissue induced by bleomycin / up-regulation of COL1A1 mRNA expression in the lung tissue induced by bleomycin: real-time fluorescent quantitative PCR, β-actin reference; for up-regulation of TIMP-1 mRNA expression in the lung tissue induced by bleomycin: FIG. 5A; for up-regulation of COL1A1 mRNA expression in the lung tissue induced by bleomycin: FIG. 5B
Description: 60 C57BL/6 mice (purchased from SLAC, Shanghai) were adaptively fed for 1 week, and 50 animals were randomly selected. 3 mg/kg of bleomycin (BLM, purchased from SIGMA, #SIGMA-P9564) was administered through intratracheal (IT) injection to the mice to establish the IPF animal model. The remaining 10 animals were injected with physiological saline at a volume same as the injected BLM, and served as the normal group (N=10). The day of the injection of bleomycin was set as day 0 (DO); on day 6, the animals were randomly divided into 4 groups according to body weight: vehicle group (N=14), compound 007 administration group (N=12), compound 128 administration group (N=12), and positive control pirfenidone (purchased from SIGMA, #SIGMA-P2116) administration group (N=12).
The animals in each group were administered on days 8-21: the animals in the normal group and vehicle group were intragastrically administered with vehicle 1 (vehicle 1: 20% PEG 400+5% Tween 80+75% ddH2O), the animals in the compound 007 administration group were intragastrically administered with compound 007 (formulated with vehicle 1), the animals in the compound 128 administration group were intragastrically administered with compound 128 (formulated with vehicle 1), and the animals in the Pirfenidone administration group were intragastrically administered with pirfenidone (vehicle 2: 0.2% Methyl cellulose+0.5% Tween 80+99.3% ddH2O).
The body weight and its changes were recorded daily (the calculation formula for the body weight change on day 21: Body weight change on day 21=Body weight on day 21—Body weight on day 0), and the results are shown in FIGS. 1A and 1B.
The animals were euthanized 2 hours after the administration on day 21, and the alveolar lavage fluid was collected for white blood cell (WBC) counting. According to FIG. 3, there was no significant difference in the total white blood cell count in the alveolar lavage fluid of the animals in each administration group.
The left lung of the animals was fixed for histopathological examination, and the Ashcroft score of lung injury was performed by Masson Trichome staining. The scoring standard is as reported in Ashcroft T et al., Journal of clinical pathology, 1988. After 100 times magnification, each successive field was scored (ranging from 0 (normal lung)) to 8 (total fibrous obliteration within the field).
The mRNA levels of lung tissue fibrosis-associated protein collagen 1A1 (COL1A1) and tissue inhibitor of metal matrix protein 1 (TIMP-1) in the lung tissue after the administration was detected by a real-time fluorescent quantitative PCR method. Specifically, the lung tissue fragments were transferred to a centrifuge tube containing 1 mL of TRIzol reagent (Invitrogen, catalog No. 15596018). The lung tissue was ground at low temperature by a tissue grinder. Total RNA in cells was extracted. TransScript All-in-One First-Strand cDNA Synthesis SuperMix for qPCR (One-Step gDNA Removal) (TransGen, catalog No. AT341-02) kit was used for reverse transcription synthesis of cDNA. The mRNA expression changes of COL1A1 and TIMP-1 in the lung tissue was detected by a fluorescence quantitative PCR method.
In the real-time fluorescent quantitative PCR method, β-actin gene was used as the internal reference gene to normalize the data. All primer sequences were from the PrimerBank website, ID No.: 34328108a1 (COL1A1 primer), 6755795a1 (TIMP-1 primer) and 6671509a1 (β-actin primer). All of the 3 primers were synthesized by Invitrogen.

[2] = system: BLM-induced mouse IPF model; assay: BLM-induced mouse IPF model, different doses (Example 3); type: in vivo, C57BL/6J mice
Description: After adaptive feeding, C57BL/6J mice were randomly divided into 2 groups according to body weight: in one group, 15 animals were administered with 50 μL physiological saline through intratracheal injection; and in another group, 90 animals were administered with 50 μL bleomycin (2.5 mg/kg) through intratracheal injection to establish the IPF model. On Day 7 after the establishment of the animal model, animals were randomly grouped according to the weight change (the difference between the weight on Day 7 after the establishment of the model and the day when the model was established). Drugs were administered for 14 consecutive days from the eighth day after the establishment of the animal model. […] The bronchoalveolar lavage fluid (BALF) was collected for white blood cell count. The left lung of the animals was fixed for preparing histopathological slide. H&E and Masson Trichome staining were performed to score the degree of lung injury and fibrosis. Pulmonary fibrosis scoring standard was according to “Standardized quantification of pulmonary fibrosis in histological samples”; lung tissue injury grade score is 0-16, mainly evaluated from four aspects including inflammatory cell infiltration (0-4), hemorrhage (0-4), interstitial and alveolar edema (0-4) and alveolar septum thickness (0-4). A higher score indicate a higher degree of lung tissue injury.

## Cc1ccc(=O)n(-c2ccccc2)c1 [Pirfenidone, reference compound]
[1]
  up-regulation of TIMP-1 mRNA expression in the lung tissue induced by bleomycin: moderate inhibitory effect without statistic difference
  up-regulation of COL1A1 mRNA expression in the lung tissue induced by bleomycin: significantly inhibited

## Cn1c(C(=O)N2CC(F)(F)C2)cc2ccc(-c3nccc(Nc4ccc(-c5cn[nH]c5)cc4)n3)cc21 [Compound 007]
[2]; 30 mpk orally once a day, pirfenidone 90 mg/kg twice a day, nintedanib 30 mg/kg once a day
  therapeutic effects compared with pirfenidone and nintedanib: equivalent to those of pirfenidone and nintedanib
[2]; 100 mpk orally once a day, pirfenidone 90 mg/kg twice a day, nintedanib 30 mg/kg once a day
  therapeutic effects compared with pirfenidone and nintedanib: equivalent to those of pirfenidone and nintedanib
[2]; 300 mpk orally once a day, pirfenidone 90 mg/kg twice a day, nintedanib 30 mg/kg once a day
  lung injury and fibrosis degree improvements compared with pirfenidone and nintedanib: superior to pirfenidone and nintedanib
[2]; compared with the model group, FIGS. 7A and 7B
  lung injury (H&E score 0-16): significantly improved
[2]; compared with the model group, FIGS. 8A and 8B
  fibrosis degree (Masson Trichome score): significantly improved
[2]; compared with the model group, orally once a day, 14 days, FIG. 6
  infiltration of white blood cells in the lung (BALF white blood cell count): significantly reduce
[1]; 100 mg/kg orally once a day, 14 days (days 8-21), FIG. 2
  survival rate of the animals at the end of the test: significantly higher
[1]; 100 mg/kg orally once a day, 14 days, FIGS. 4A and 4B
  collagen accumulation in lung and degree of lung fibrosis (Ashcroft score, Masson Trichome staining): significantly reduced
[1]; 007 and 128 at 100 mg/kg once a day, pirfenidone 90 mg/kg twice a day, FIGS. 4A and 4B
  therapeutic effect on lung fibrosis compared with pirfenidone and compound 128: significantly better than that of pirfenidone and compound 128
[1]
  up-regulation of TIMP-1 mRNA expression in the lung tissue induced by bleomycin: significantly inhibited
  up-regulation of COL1A1 mRNA expression in the lung tissue induced by bleomycin: significantly inhibited

Source: US12582653B2, “Method for treating idiopathic pulmonary fibrosis” (BEIJING TIDE PHARMACEUTICAL CO., LTD., priority 2020, dated 2026)
